Assay results published in patent US20200270232A1, “INHIBITORS OF INTEGRATED STRESS RESPONSE PATHWAY” (Praxis Biotech LLC, priority 2019, published 2020).

Experiments:
[1] = test system: Chinese hamster ovary (CHO) cells; assay: Protein translation assay (puromycin labelling, western blot); assay type: cell-based; conditions: 2 hours, media alone = 100%; for activity at 1 µM: Cricetulus griseus, unstressed CHO cells (without Tg), 1 μM test compound, read-out: % Protein synthesis relative to untreated (1 μM test compound); for % Recovery of protein synthesis (1 μM test compound): stressed CHO cells, 300 nM Tg, Tg alone = 0%
Procedure: Chinese hamster ovary (CHO) cells were maintained at 37° C. and 5% C02 in Dulbecco's Modified Eagle's Media (DMEM) supplemented with 10% fetal bovine serum, 2 mM L-glutamine, 100 U/ml penicillin, and 100 μg/ml streptomycin. After reaching 80% of confluence, cells were detached and seeded on 6 well plates in complete media, allowed to recover overnight and treated for 2 hours with 1 μM of the test compound (to assess protein synthesis levels in unstressed condition), or for 2 hours with 300 nM Tg in the presence of 1 μM of the test compound (to assess the recovery of protein synthesis in a stressed condition). Cells with Tg alone were used as controls.
After the 2 hours treatments, media were replaced by adding 10 μg/ml puromycin (Sigma Aldrich # P8833) in complete media for 30 min. Media were removed and cells were lysed with SDS-PAGE lysis buffer. Lysates were transferred to 1.5 ml tubes and sonicated for 3 min and total protein amount were quantified using BCA Protein Assay Kit (Pierce). Equal amount of protein (30 μg) was loaded on SDS-PAGE gels. Proteins were transferred onto 0.2 μm PVDF membranes (BioRad) and probed with primary antibodies diluted in Tris-buffered saline supplemented with 0.1% Tween 20 (Merck # S6996184 505) and 3% bovine serum albumin (Rockland # BSA-50).
Puromycin (12D10) (Merck # MABE343) and β-actin (Sigma Aldrich # A5441) antibodies were used as primary antibody. A HRP-conjugated secondary antibody (Rockland) was employed to detect immune-reactive bands using enhanced chemiluminescence (ECL Western Blotting Substrate, Pierce). Quantification of protein bands was done by densitometry using ImageJ software.
Percent increase of protein synthesis in unstressed cells (without Tg treatment) in the presence of media alone or certain test compounds is shown in Table 3. The percentage levels were normalized to the media alone condition, which correspond to 100% protein synthesis.
Percent recovery of protein synthesis in stressed cells (with Tg treatment) due to the test compounds at 1 μM is also shown in Table 3. The levels were normalized to the media alone and Tg alone conditions, which correspond to 100% and 0% respectively.

ATF4 = ATF4 expression inhibition assay (ATF4 luciferase reporter); assay type: cell-based; conditions: Homo sapiens, HEK-293T; HEK293T cells carrying the ATF4 luciferase reporter, 100 nM thapsigargin (Tg), 3 hours; read-out: ATF4 inhbition IC50
Procedure: The ATF4 reporter was prepared by fusing the human full length 5′UTR of ATF4 (NCBI Accession No. BC022088.2) upstream of the firefly luciferase coding sequence lacking the initiator methionine. The fused sequence was cloned into pLenti-EF1a-C-Myc-DDK-IRES-Puro cloning vector (Origen # PS 100085) using standard methods. Virus production was carried out by using Lenti-X™ Packaging Single Shots Protocol (Clonetech #631276). Viral particles were used to transduce HEK293T cells (ATCC # CRL-3216, ATCC Manassas, Va.), which were subsequently selected with puromycin to generate stable cell line. Cells were maintained at 37° C. and 5% CO2 in DMEM-F12 (Hyclone # SH30023.02) supplemented with 10% heat-inactivated fetal bovine serum (Gibco #16000-044), 2 mM L-glutamine (Gibco #25030-081), 100 U/ml penicillin, and 100 μg/ml streptomycin (Gibco #15140-122).
HEK293T cells carrying the ATF4 luciferase reporter were plated on 96-well plates (Nunc) at 10,000 cells per well. Cells were treated two days after seeding with 100 nM thapsigargin (Tg) (Sigma-Aldrich # T9033) in the presence of different concentrations of selected compounds ranging from 1 nM to 10 μM. Cells without treatment or cells treated with Tg alone were used as controls. Assay plates containing cells were incubated for 3 hours at 37° C.
Luciferase reactions were performed using Luciferase Assay System (Promega # E1501) as specified by the manufacturer. Luminescence was read with an integration time of 1 s and a gain of 110 using a Cytation-5 multi-mode microplate reader (BioTek). Relative luminescence units were normalized to Tg treatment (0% inhibition) and untreated cells (100% inhibition) and the percentage of ATF4 inhibition was calculated.
Accordingly, inhibition of ATF4 expression as a result of the test compound indicates suppression of the ISR pathway.

IC50 (ATF4) | Structure (SMILES) | activity at 1 µM [1] | % Recovery of protein synthesis (1 μM test compound) [1]
> 1 µM | O=C(NC1CCN(CC(O)COc2ccc(Cl)c(F)c2)C1)c1ccc2cc(Cl)ccc2n1 (stereo not drawn) [Compound 53, 6-chloro-N-(1-(3-(4-chloro-3-fluorophenoxy)-2-hydroxypropyl)pyrrolidin-3-yl)quinoline-2-carboxamide] | 102% | 37.93%
> 1 µM | O=C(NC1CCN(CCCOc2ccc(Cl)c(F)c2)C1)c1ccc2cc(Cl)ccc2n1 (stereo not drawn) [Compound 56, 6-chloro-N-(1-(3-(4-chloro-3-fluorophenoxy)propyl)pyrrolidin-3-yl)quinoline-2-carboxamide] | 100% | 32.73%
> 0.1 µM | O=C(NCC1CCN(C[C@@H](O)COc2ccc(Cl)c(F)c2)C1)c1ccc2cc(Cl)ccc2n1 (stereo partly drawn) [Compound 80, 6-chloro-N-((1-((R)-3-(4-chloro-3-fluorophenoxy)-2-hydroxypropyl)pyrrolidin-3-yl)methyl)quinoline-2-carboxamide] | 153% | 23.9%
1 µM | O=C(NCC1CCN(C[C@H](O)COc2ccc(Cl)c(F)c2)C1)c1ccc2cc(Cl)ccc2n1 (stereo partly drawn) [Compound 81, 6-chloro-N-((1-((S)-3-(4-chloro-3-fluorophenoxy)-2-hydroxypropyl)pyrrolidin-3-yl)methyl)quinoline-2-carboxamide] | 134% | 38.7%
> 1 µM | O=C(NC1CCC(NC[C@@H](O)COc2ccc(Cl)c(F)c2)C1)c1cc2cc(Cl)ccc2o1 (stereo partly drawn) [Compound 82, 5-chloro-N-(3-(((R)-3-(4-chloro-3-fluorophenoxy)-2-hydroxypropyl)amino)cyclopentyl)benzofuran-2-carboxamide] | 160% | 176.4%
> 1 µM | O=C(NC1CCC(NC[C@H](O)COc2ccc(Cl)c(F)c2)C1)c1cc2cc(Cl)ccc2o1 (stereo partly drawn) [Compound 83, 5-chloro-N-(3-(((S)-3-(4-chloro-3-fluorophenoxy)-2-hydroxypropyl)amino)cyclopentyl)benzofuran-2-carboxamide] | 129% | 175.2%
> 0.1 µM | O=C(COc1ccc(Cl)c(F)c1)NCC1CCC(NC(=O)COc2ccc(Cl)c(F)c2)C1 (stereo not drawn) [Compound 84, 2-(4-chloro-3-fluorophenoxy)-N-((3-(2-(4-chloro-3-fluorophenoxy)acetamido)cyclopentyl)methyl)acetamide] | 80.3% | 
< 1 µM | O=C(COc1ccc(Cl)c(F)c1)NCC1CCC(NC(=O)c2ccc3cc(Cl)ccc3n2)C1 (stereo not drawn) [Compound 85, 6-chloro-N-(3-((2-(4-chloro-3-fluorophenoxy)acetamido)methyl)cyclopentyl)quinoline-2-carboxamide] | 88% | 
< 0.1 µM | O=C(COc1ccc(Cl)c(F)c1)NCC1CCC(NC(=O)c2cc3cc(Cl)ccc3o2)C1 (stereo not drawn) [Compound 86, 5-chloro-N-(3-((2-(4-chloro-3-fluorophenoxy)acetamido)methyl)cyclopentyl)benzofuran-2-carboxamide] | 94.2% | 
< 1 µM | O=C(COc1ccc(Cl)c(F)c1)NC1CCC(CNC(=O)c2ccc3cc(Cl)ccc3n2)C1 (stereo not drawn) [Compound 87, 6-chloro-N-((3-(2-(4-chloro-3-fluorophenoxy)acetamido)cyclopentyl)methyl)quinoline-2-carboxamide] | 83.9% | 
< 1 µM | O=C(COc1ccc(Cl)c(F)c1)NC1CCC(CNC(=O)c2cc3cc(Cl)ccc3o2)C1 (stereo not drawn) [Compound 88, 5-chloro-N-((3-(2-(4-chloro-3-fluorophenoxy)acetamido)cyclopentyl)methyl)benzofuran-2-carboxamide] | 76.4% | 
> 1 µM | O=C(COc1ccc(Cl)c(F)c1)NCC1CCC(NCC(O)COc2ccc(Cl)c(F)c2)C1 (stereo not drawn) [Compound 89, 2-(4-chloro-3-fluorophenoxy)-N-((3-((3-(4-chloro-3-fluorophenoxy)-2-hydroxypropyl)amino)cyclopentyl)methyl)acetamide] | 119% | 42.5%
0.0578 µM | O=C(NC1CC[C@H](NC[C@@H](O)COc2ccc(Cl)c(F)c2)C1)c1cc2cc(Cl)ccc2o1 (stereo partly drawn) [Compound 90, 5-chloro-N-((3S)-3-(((R)-3-(4-chloro-3-fluorophenoxy)-2-hydroxypropyl)amino)cyclopentyl)benzofuran-2-carboxamide] | 210% | 269.7%
1.24 µM | O=C(NC1CC[C@H](NC[C@H](O)COc2ccc(Cl)c(F)c2)C1)c1cc2cc(Cl)ccc2o1 (stereo partly drawn) [Compound 91, 5-chloro-N-((3S)-3-(((S)-3-(4-chloro-3-fluorophenoxy)-2-hydroxypropyl)amino)cyclopentyl)benzofuran-2-carboxamide] | 190% | 209.4%
0.0141 µM | O=C(COc1ccc(Cl)c(F)c1)NCC1CCN(NC(=O)COc2ccc(Cl)c(F)c2)C1 (stereo not drawn) [Compound 92, 2-(4-chloro-3-fluorophenoxy)-N-(3-((2-(4-chloro-3-fluorophenoxy)acetamido)methyl)pyrrolidin-1-yl)acetamide] | 93.6% | 45.8%
0.0028 µM | O=C(COc1ccc(Cl)c(F)c1)NCC1CCN(NC(=O)c2ccc3cc(Cl)ccc3n2)C1 (stereo not drawn) [Compound 93, 6-chloro-N-(3-((2-(4-chloro-3-fluorophenoxy)acetamido)methyl)pyrrolidin-1-yl)quinoline-2-carboxamide] | 102% | 51.4%
0.0243 µM | O=C(N[C@H]1CC[C@H](NC[C@@H](O)COc2ccc(Cl)c(F)c2)C1)c1cc2cc(Cl)ccc2o1 [Compound 94, 5-chloro-N-((1S,3S)-3-(((R)-3-(4-chloro-3-fluorophenoxy)-2-hydroxypropyl)amino)cyclopentyl)benzofuran-2-carboxamide] | 169% | 298.3%
< 1 µM | O=C(N[C@@H]1CC[C@@H](NC[C@@H](O)COc2ccc(Cl)c(F)c2)C1)c1cc2cc(Cl)ccc2o1 [Compound 95, 5-chloro-N-((1R,3R)-3-(((R)-3-(4-chloro-3-fluorophenoxy)-2-hydroxypropyl)amino)cyclopentyl)benzofuran-2-carboxamide] | 186% | 170.5%
0.00497 µM | O=C(COc1ccc(Cl)c(F)c1)NC[C@@H]1CCN(NC(=O)c2cc3cc(Cl)ccc3o2)C1 [Compound 96, (S)-5-chloro-N-(3-((2-(4-chloro-3-fluorophenoxy)acetamido)methyl)pyrrolidin-1-yl)benzofuran-2-carboxamide] | 110% | 24.5%
0.025 µM | O=C(COc1ccc(Cl)c(F)c1)NC[C@H]1CCN(NC(=O)c2cc3cc(Cl)ccc3o2)C1 [Compound 97, (R)-5-chloro-N-(3-((2-(4-chloro-3-fluorophenoxy)acetamido)methyl)pyrrolidin-1-yl)benzofuran-2-carboxamide] | 109% | 
